Test results reported in patent EP2253617A1, “Halogenated compounds as pesticides” (Bayer CropScience AG, priority 2009, dated 2010).
Like-named read-outs stand apart in the source and are kept apart here.

Key:
[1] = tested on: Phaedon cochleariae; test: Phaedon test (PHAECO spray treatment); assay type: in vivo; conditions: sprayed Chinese cabbage leaf discs, larvae, after 7 days, 100 % = all beetle larvae killed
Text: Phaedon-Test (PHAECO Spritzbehandlung)
(§1) • Lösungsmittel: 78,0 GewichtsteileAceton 1,5 Gewichtsteile Dimethylformamid • Emulgator: 0,5 Gewichtsteile Alkylarylpolyglykolether
(§2) Zur Herstellung einer zweckmäßigen Wirkstoffzubereitung vermischt man 1 Gewichtsteil Wirkstoff mit den angegebenen Mengen Lösungsmittel und Emulgator und verdünnt das Konzentrat mit emulgatorhaltigem Wasser auf die gewünschte Konzentration.
Chinakohlblattscheiben (Brassica pekinensis) werden mit einer Wirkstoffzubereitung der gewünschten Konzentration gespritzt und nach dem Abtrocknen mit Larven des Meerrettichblattkäfers (Phaedon cochleariae) besetzt.
Nach 7 Tagen wird die Wirkung in % bestimmt. Dabei bedeutet 100 %, dass alle Käferlarven abgetötet wurden; 0 % bedeutet, dass keine Käferlarven abgetötet wurden.

[2] = physchem
[3] = tested on: Ctenocephalides felis; test: Ctenocephalides felis oral test (CTECFE); assay type: in vivo; conditions: 100 ppm in citrated cattle blood, oral uptake, adult fleas, after 2 days; 100 % = all fleas killed
Method: Ctenocephalides felis oral (CTECFE)
Lösungsmittel: 1 Gewichtsteil Dimethylsulfoxid
Zwecks Herstellung einer zweckmäßigen Wirkstoffzubereitung vermischt man 10 mg Wirkstoff mit 0,5 ml Dimethylsulfoxid. Ein Teil des Konzentrats wird mit citriertem Rinderblut verdünnt und die gewünschte Konzentration hergestellt.
20 nüchterne adulte Flöhe (Ctenocephalides felis) werden in eine Kammer eingesetzt, die oben und unten mit Gaze verschlossen ist. Auf die Kammer wird ein Metallzylinder gestellt, dessen Unterseite mit Parafilm verschlossen ist. Der Zylinder enthält die Blut-Wirkstoffzubereitung, die von den Flöhen durch die Parafilmmembran aufgenommen werden kann. Nach 2 Tagen wird die Abtötung in % bestimmt. Dabei bedeutet 100 %, dass alle Flöhe abgetötet wurden; 0 % bedeutet, dass kein Floh abgetötet wurde.

[4] = tested on: Boophilus microplus; test: Boophilus microplus test (BOOPMI injection); assay type: in vivo; conditions: 20 µg / Tier, injection into the abdomen, after 7 days; 100 % = no tick laid fertile eggs
Method: Boophilus microplus -Test (BOOPMI Injektion)
Lösungsmittel: Dimethylsulfoxid
Zur Herstellung einer zweckmäßigen Wirkstoffzubereitung vermischt man 10 mg Wirkstoff mit 0,5 ml Lösungsmittel und verdünnt das Konzentrat mit Wasser auf die gewünschte Konzentration. Die Wirkstofflösung wird in das Abdomen (Boophilus microplus) injiziert, die Tiere werden in Schalen überführt und in einem klimatisierten Raum aufbewahrt. Die Wirkungskontrolle erfolgt auf Ablage fertiler Eier. Nach 7 Tagen wird die Wirkung in % bestimmt. Dabei bedeutet 100%, dass keine Zecke fertile Eier gelegt hat.

[5] = tested on: Spodoptera frugiperda; test: Spodoptera frugiperda test (SPODFR spray treatment); assay type: in vivo; conditions: 500 g/ha, sprayed maize leaf discs, caterpillars, after 7 days; 100 % = all caterpillars killed
Text: Spodoptera frugiperda-Test (SPODFR Spritzbehandlung)
as §1, §2
Maisblattscheiben (Zea mays) werden mit einer Wirkstoffzubereitung der gewünschten Konzentration gespritzt und nach dem Abtrocknen mit Raupen des Heerwurms (Spodoptera frugiperda) besetzt.Nach 7 Tagen wird die Wirkung in % bestimmt. Dabei bedeutet 100 %, dass alle Raupen abgetötet wurden; 0 % bedeutet, dass keine Raupe abgetötet wurde.

[6] = tested on: Tetranychus urticae; assay type: in vivo; conditions: foliar, 144 h
Text: Tetranychus-Test, OP-resistent (TETRUR Spritzbehandlung)
as §1, §2
Bohnenblattscheiben (Phaseolus vulgaris), die von allen Stadien der Gemeinen Spinnmilbe (Tetranychus urticae) befallen sind, werden mit einer Wirkstoffzubereitung der gewünschten Konzentration gespritzt.
Nach 6 Tagen wird die Wirkung in % bestimmt. Dabei bedeutet 100 %, dass alle Spinnmilben abgetötet wurden; 0 % bedeutet, dass keine Spinnmilben abgetötet wurden.

[7] = physchem; remark: listed apart in the source

| SMILES | Wirkung ([1]; 500 g/ha) | chromatographic logP [2] | Wirkung [5] | chromatographic logP [7] | further results |
| --- | --- | --- | --- | --- | --- |
| Cn1nc(C(F)(F)C(F)(F)F)c(C(F)(F)F)c1C(=O)Nc1ccc(Cl)c(C(=O)Nc2ccncc2)c1 [Ia-1] | 100% | 1.99 | – | – | – |
| Cn1nc(C(F)(F)C(F)(F)F)c(C(F)(F)F)c1C(=O)Nc1ccc(Cl)c(C(=O)Nc2cccnc2)c1 [Ia-2] | 100% | 2.69 | 100% | – | Wirkung (Abtötung in %) [3]: 100%; Wirkung [4]: 100%; Wirkung ([6]; 500 g/ha): 90% |
| Cc1nc(C(F)(F)F)ccc1C(=O)Nc1ccc(Cl)c(C(=O)Nc2ccc(F)cc2)c1 [Ia-3, N-{4-Chlor-3-[(4-fluorphenyl)carbamoyl]phenyl}-2-methyl-6-(trifluormethyl)nicotinamid] | 100% | – | 100% | 3.15 | – |
| Cn1nc(C(F)(F)C(F)(F)F)c(C(F)(F)F)c1C(=O)Nc1ccc(Cl)c(C(=O)Nc2cnccc2Cl)c1 [Ia-4] | 100% | 3.33 | 80% | – | – |
| O=C(Nc1ccc(Cl)c(C(=O)Nc2ccc(F)cc2)c1)c1csc(C(F)(F)F)n1 [Ia-5] | – | – | – | 3.35 | – |
| Cn1nc(C(F)(F)C(F)(F)F)c(C(F)(F)F)c1C(=O)Nc1ccc(Cl)c(C(=O)Nc2ccnc(Cl)c2)c1 [Ia-6] | 100% | 3.37 | 100% | – | Wirkung ([6]; 500 g/ha): 80% |
| Cn1nc(C(F)(F)F)c(Br)c1C(=O)Nc1ccc(Cl)c(C(=O)Nc2ccc(Cl)nc2)c1 [Ia-7] | – | – | – | 3.42 | Wirkung ([1]; 100 g/ha): 100%; Wirkung ([6]; 100 g/ha): 80% |
| Cc1nc(C(F)(F)F)ccc1C(=O)Nc1ccc(Cl)c(C(=O)Nc2cccc(Cl)c2)c1 [Ia-9] | 80% | – | – | 3.6 | – |
| O=C(Nc1ccc(F)cc1)c1cc(NC(=O)c2cnc(C(F)(F)C(F)(F)F)nc2C(F)F)ccc1Cl [Ia-10] | 100% | – | – | 3.67 | – |
| COc1ccc(NC(=O)c2cc(NC(=O)c3c(C(F)(F)F)c(C(F)(F)C(F)(F)F)nn3C)ccc2Cl)cc1 [Ia-12] | – | 3.68 | 100% | – | – |
| Cn1nc(C(F)(F)C(F)(F)F)c(C(F)(F)F)c1C(=O)Nc1ccc(Cl)c(C(=O)Nc2cccnc2Cl)c1 [Ia-13] | 100% | 3.73 | 100% | – | Wirkung ([6]; 500 g/ha): 90% |
| O=C(Nc1ccc(Cl)c(C(=O)Nc2cccc(Cl)c2)c1)c1csc(C(F)(F)F)n1 [Ia-14] | – | – | – | 3.82 | – |
| Cn1nc(C(F)(F)C(F)(F)F)c(C(F)(F)F)c1C(=O)Nc1ccc(Cl)c(C(=O)Nc2cccc(Cl)n2)c1 [Ia-19] | 100% | 3.94 | 100% | – | Wirkung ([6]; 500 g/ha): 100% |
| O=C(Nc1ccc(F)cc1)c1cc(NC(=O)c2cnc(C(F)(F)C(F)(F)F)nc2C(F)(F)F)ccc1Cl [Ia-20] | 100% | – | 100% | 3.98 | – |
| Cc1cc(F)ccc1NC(=O)c1cc(NC(=O)c2c(C(F)(F)F)c(C(F)(F)C(F)(F)F)nn2C)ccc1Cl [Ia-23] | 100% | 4.05 | 100% | – | Wirkung ([6]; 500 g/ha): 90% |
| O=C(Nc1ccc(F)cc1)c1cc(NC(=O)c2cnc(C(F)(F)C(F)(F)F)nc2C2CC2)ccc1Cl [Ia-24] | 100% | – | 100% | 4.08 | – |
| O=C(Nc1cccc(Cl)c1)c1cc(NC(=O)c2cnc(C(F)(F)C(F)(F)F)nc2C(F)F)ccc1Cl [Ia-25] | 100% | – | 100% | 4.08 | – |

| SMILES | Wirkung ([1]; 500 g/ha) | chromatographic logP [2] | Wirkung [5] | chromatographic logP [7] | further results |
| --- | --- | --- | --- | --- | --- |
| Cn1nc(C(F)(F)C(F)(F)F)c(C(F)(F)F)c1C(=O)Nc1ccc(Cl)c(C(=O)Nc2ccc(Cl)cn2)c1 [Ia-27] | 100% | 4.17 | 100% | – | – |
| Cn1nc(C(F)(F)C(F)(F)F)c(C(F)(F)F)c1C(=O)Nc1ccc(Cl)c(C(=O)Nc2ccccc2Cl)c1 [Ia-31] | 100% | 4.28 | 100% | – | Wirkung (Abtötung in %) [3]: 95% |
| O=C(Nc1cccc(Cl)c1)c1cc(NC(=O)c2cnc(C(F)(F)C(F)(F)F)nc2C(F)(F)F)ccc1Cl [Ia-32, N-{4-Chlor-3-[(3-chlorphenyl)carbamoyl]phenyl}-2-(pentafluorethyl)-4-(trifluormethyl)pyrimidin-5-carboxamid] | 100% | – | 100% | 4.32 | – |
| Cc1c(NC(=O)c2cc(NC(=O)c3c(C(F)(F)F)c(C(F)(F)C(F)(F)F)nn3C)ccc2Cl)ccc(F)c1Cl [Ia-33] | 100% | 4.34 | 100% | – | Wirkung ([6]; 500 g/ha): 90% |
| O=C(Nc1ccc(F)cc1)c1cc(NC(=O)c2cnc(C(F)(F)C(F)(F)F)nc2C(F)(F)C(F)(F)F)ccc1Cl [Ia-34] | 100% | – | 100% | 4.36 | Wirkung ([6]; 500 g/ha): 80% |
| Cn1nc(C(F)(F)C(F)(F)F)c(Br)c1C(=O)Nc1ccc(Cl)c(C(=O)Nc2ccc(Cl)cn2)c1 [Ia-35] | 100% | – | 80% | – | – |
| Cn1nc(C(F)(F)C(F)(F)F)c(C(F)(F)F)c1C(=O)Nc1ccc(Cl)c(C(=O)Nc2cccc(C(F)(F)F)c2)c1 [Ia-37] | 100% | 4.4 | 100% | – | – |
| Cn1nc(C(F)(F)C(F)(F)F)c(Br)c1C(=O)Nc1ccc(Cl)c(C(=O)Nc2ccc(Cl)cc2)c1 [Ia-38] | 80% | – | – | 4.43 | – |
| Cn1nc(C(F)(F)C(F)(F)F)c(C(F)(F)F)c1C(=O)Nc1ccc(Cl)c(C(=O)Nc2ccc(F)c(C(F)(F)F)c2)c1 [Ia-39] | 100% | 4.51 | 100% | – | – |
| O=C(Nc1cccc(Cl)c1)c1cc(NC(=O)c2cnc(C(F)(F)C(F)(F)F)nc2C2CC2)ccc1Cl [Ia-40] | – | – | 100% | 4.54 | – |
| Cc1cc(NC(=O)c2cc(NC(=O)c3c(C(F)(F)F)c(C(F)(F)C(F)(F)F)nn3C)ccc2Cl)c(Cl)cc1F [Ia-41] | 100% | 4.64 | – | – | – |
| Cn1nc(C(F)(F)C(F)(F)F)c(C(F)(F)F)c1C(=O)Nc1ccc(Cl)c(C(=O)Nc2ccc(Cl)c(Cl)c2)c1 [Ia-42, N-{4-Chlor-3-[(3,4-dichlorphenyl)carbamoyl]phenyl}-1-methyl-3-(pentafluorethyl)-4-(trifluormethyl)-1H-pyrazol-5-carboxamid] | 100% | 4.65 | 100% | – | – |
| Cn1nc(Cn2nc(C(F)(F)C(F)(F)F)cc2C(F)(F)C(F)(F)F)c(C(F)(F)F)c1C(=O)Nc1ccc(Cl)c(C(=O)Nc2ccc(F)cc2)c1 [Ia-43] | 100% | – | 100% | 4.99 | – |
| Cn1nc(C(F)(F)C(F)(F)F)c(C(F)(F)F)c1C(=O)Nc1ccc(Cl)c(C(=O)Nc2cc(Cl)c(Cl)c(Cl)c2)c1 [Ia-44] | 100% | 5.15 | 100% | – | – |
| Cn1nc(C(F)(F)C(F)(F)F)c(C(F)(F)F)c1C(=O)Nc1ccnc(C(=O)Nc2ccc(F)cc2)c1 [Ib-1, N-[2-(4-fluor-phenylcarbamoyl)pyrid-4-yl]-1-methyl-3-(pentafluorethyl)-4-(trifluormethyl)-1H-pyrazol-5-carbonsäureamid] | – | – | – | 4.3 | – |
| Cn1nc(C(F)(F)C(F)(F)F)c(C(F)(F)F)c1C(=O)Nc1ccc(Br)c(C(=O)Nc2ccc(F)cc2)n1 [Ic-1, N-[3-Brom-2-(4-fluor-phenylcarbamoyl)pyrid-6-yl]-1-methyl-3-(pentafluorethyl)-4-(trifluormethyl)-1H-pyrazol-5-carbonsäureamid] | 100% | – | 100% | 4.45 | – |
